Measurements as given in ChEMBL document CHEMBL3526100, “A refined cytochrome P540 IC₅₀ shift assay for reliably identifying CYP3A time-dependent inhibitors” (Drug Metab Dispos, 2011).

How the values were obtained:
Type in all cases: ADME
Cytochrome P450 3A4 [1] = biological target: T1, Cytochrome P450 3A4 (Homo sapiens, UniProt P08684); experiment: Time dependent inhibition of CYP3A4 in human liver microsomes assessed as conversion of testosterone to 6beta-hydroxytestosterone at 0.01 to 100 uM preincubated for 60 mins followed by testosterone treatment measured after 10 mins by LC-MS/MS analysis
T1 sequence (P08684 whole entry): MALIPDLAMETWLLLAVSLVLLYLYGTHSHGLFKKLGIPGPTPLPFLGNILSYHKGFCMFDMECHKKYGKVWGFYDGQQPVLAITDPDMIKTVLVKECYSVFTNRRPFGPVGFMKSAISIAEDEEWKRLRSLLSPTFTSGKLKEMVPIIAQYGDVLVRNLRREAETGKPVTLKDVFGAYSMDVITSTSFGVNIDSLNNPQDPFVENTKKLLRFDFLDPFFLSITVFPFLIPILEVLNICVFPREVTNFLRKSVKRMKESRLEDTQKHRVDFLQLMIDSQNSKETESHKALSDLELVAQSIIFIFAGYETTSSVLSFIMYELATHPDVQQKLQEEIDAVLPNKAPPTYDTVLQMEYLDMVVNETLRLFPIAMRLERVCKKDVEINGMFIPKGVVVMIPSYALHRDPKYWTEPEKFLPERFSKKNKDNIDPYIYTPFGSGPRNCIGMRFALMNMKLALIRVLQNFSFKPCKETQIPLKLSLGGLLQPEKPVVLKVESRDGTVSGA

Cytochrome P450 3A4 [2] = biological target: T1, Cytochrome P450 3A4; experiment: Time dependent inhibition of CYP3A4 in human liver microsomes assessed as conversion of testosterone to 6beta-hydroxytestosterone at 0.01 to 100 uM preincubated for 60 mins followed by testosterone treatment measured after 10 mins by refined CYP450 IC50 shift assay in presence of NADPH
Cytochrome P450 3A4 [3] = biological target: T1, Cytochrome P450 3A4; experiment: Time dependent inhibition of CYP3A4 in human liver microsomes assessed as conversion of testosterone to 6beta-hydroxytestosterone at 0.01 to 100 uM preincubated for 60 mins followed by testosterone treatment measured after 10 mins by LC-MS/MS analysis in presence of NADPH
Cytochrome P450 3A4 [4] = biological target: T1, Cytochrome P450 3A4; experiment: Time dependent inhibition of CYP3A4 in human liver microsomes assessed as conversion of testosterone to 6beta-hydroxytestosterone at 0.01 to 100 uM preincubated for 60 mins followed by testosterone treatment measured after 10 mins by refined CYP450 IC50 shift assay

Measured: inhibition (INH)

CC(C)=CCC/C(C)=C/COc1c2ccoc2cc2oc(=O)ccc12 [BERGAMOTTIN]
Active: all assays above

CC[C@H]1OC(=O)[C@H](C)[C@@H](O[C@H]2C[C@@](C)(OC)[C@@H](O)[C@H](C)O2)[C@H](C)[C@@H](O[C@@H]2O[C@H](C)C[C@H](N(C)C)[C@H]2O)[C@](C)(O)C[C@@H](C)C(=O)[C@H](C)[C@@H](O)[C@]1(C)O [ERYTHROMYCIN]
Active: all assays above

C/C(=C\COc1c2ccoc2cc2oc(=O)ccc12)CCC(O)C(C)(C)O (stereo not given) [DIHYDROXYBERGAMOTTIN]
Active: all assays above

O=C(c1ccc(OCCN2CCCCC2)cc1)c1c(-c2ccc(O)cc2)sc2cc(O)ccc12 [RALOXIFENE]
Active: all assays above

CNCCC(Oc1ccc(C(F)(F)F)cc1)c1ccccc1 (stereo not given) [FLUOXETINE]
Active: all assays above
